Target: T1, estrogen receptor α (ER-α) (Homo sapiens, UniProt P03372)
T1 sequence (P03372 311-547 limits assumed): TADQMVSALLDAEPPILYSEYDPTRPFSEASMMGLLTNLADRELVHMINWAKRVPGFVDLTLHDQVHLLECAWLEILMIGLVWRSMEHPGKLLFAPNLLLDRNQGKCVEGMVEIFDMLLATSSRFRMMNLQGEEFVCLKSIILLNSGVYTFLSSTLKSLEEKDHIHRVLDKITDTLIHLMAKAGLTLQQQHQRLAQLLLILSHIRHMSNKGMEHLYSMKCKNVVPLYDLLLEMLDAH
Experiment: LanthaScreen TR-FRET competitive binding assay

IC50: 51 µM
SMILES: CC(C)c1cc2c(c(O)c1O)[C@@]13CCCC(C)(C)[C@@H]1C[C@@H]2OC3=O [carnosol]

— paper PMC2978906 (Cancer prevention research (Philadelphia, Pa.), 2010)
